Measured values as given in patent publication US8703829B2, “Therapeutic compounds” (University of Louisville Research Foundation, Inc., priority 2007, dated 2014).

What was measured:
[1] = tested on: A549 human non-small cell lung cancer xenografts; assay type: in vivo
Excerpt: FIG. 2. […] (A) Tumor growth appeared to be reduced in mice treated with the compound of Example 1, but the effect was not statistically significant (p≧0.13). […] Compare with the mean±SE in the control group.
Test F In-vivo Effects of Compound of Example 1.
The following study was designed to assess toxicity and activity in female nude mice bearing A549 human non-small cell lung cancer xenografts. Athymic nude mice were inoculated subcutaneously (s.c.) with A549 cells and treatment began after small tumors were visible. The compound of Example 1 was prepared at 100 mg/ml or 50 mg/ml in DMSO and diluted 1:10 with sterile PBS. Mice were treated by intraperitoneal (i.p.) injections of 100 μl of these solutions, equivalent to approximately 25 mg/kg or 50 mg/kg; the control group received identical injections of vehicle (10% DMSO in PBS). Mice received injections of the compound of Example 1 or vehicle five times per week (once per day, except on weekends) for up to 30 injections. […] Evaluating the long-term outcome was complicated by the fact that several animals in the compound of Example 1 treated groups developed tumor necrosis/ulceration and had to be euthanized before the end of the experiment, as required by IACUC protocol. This tumor necrosis is believed to be treatment-related as it occurred in 5/12 treated animals, but 0/6 of the control group. […] The overall response seemed to be equivalent or better in the low dose group compared with the high dose group, but that may be consistent with the mechanism of action, since a similar effect has been observed for decitabine in humans.

[2] = tested on: DNA methyltransferase activity of HeLa nuclear extracts; experiment: Test E experiment 3: DNA methyltransferase activity of purified HeLa nuclear extracts incubated in vitro with compound (EpiQuik kit); assay type: biochemical; conditions: experiment 3: 20 μg HeLa nuclear extracts incubated in vitro with 500 nM; untreated 0.264
Protocol: (§1) Test E The Methyltransferase Activity of the Compound of Example 1 was Evaluated as Follows.
(§2) For experiments 1 and 2, A549 non-small cell lung cancer cells were incubated with the compound of Example 1 (1 μM final concentration) or vehicle (untreated) for 2 h and nuclear extracts were prepared by standard methods. The total DNA methyltransferase activity of the extracts was measured using EpiQuik™ DNA Methyltransferase Activity/Inhibition Assay Kit (Epigentek, Brooklyn, N.Y.), according to the manufacturer's directions. For experiment 3, the assay was carried out using purified HeLa nuclear extracts in the presence of the compound of Example 1 (500 nM final concentration) or vehicle (untreated).
(§3) The assay involves incubation of nuclear extracts (as a source of DNA methyltransferase activity) with immobilized DNA substrate in the presence of Adomet (methyl donor). The DNA methyltransferase activity was measured by determining levels of 5-methylcytosine in the DNA substrate using a primary antibody to 5-methylcytosine and a secondary antibody for colorimetric detection at 450 nm.

[3] = tested on: panel of 60 human tumor cell lines; experiment: Test D: screen against a panel of 60 human tumor cell lines; assay type: cell-based
Excerpt: Test D Anti-Cancer Activity
The compound of Example 1 below was screened against a panel of 60 human tumor cell lines.

[4] = tested on: total DNA methyltransferase activity in A549 non-small cell lung cancer cells; experiment: Test E experiments 1 and 2: DNA methyltransferase activity of nuclear extracts from treated A549 cells (EpiQuik kit); assay type: cell-based, human
Protocol: as §1, §2, §3

SMILES: CCCCCC(O)C#CC(F)(F)Br (stereo not drawn) [Example 1, 1-bromo-1,1-difluoro-non-2-yn-4-ol]
- tumor necrosis/ulceration, treated animals affected ([1]; approx. 25 or 50 mg/kg i.p., 0/6 in the control group): 5/12
- tumor growth compared to control-treated mice ([1]; approx. 25 or 50 mg/kg i.p., difference not statistically significant (p≧0.13)): grew slower
- size of ulcerated tumors versus control group at the same time point ([1]; treated mice euthanized early due to tumor necrosis): substantially smaller
- Relative DNA Methyltransferase Activity [2]: 0.092
- GI50 ([3]; Homo sapiens, all seven breast cancer cell lines, including a doxorubicin-resistant line): 10 to 66 nM
- activity by tumor type ([3]; breast, prostate, colon and brain (CNS) tumor cells): highly active
- activity by tumor type ([3]; other tumor types, e.g. melanomas): less potent
- Relative DNA Methyltransferase Activity ([4]; experiment 1: nuclear extracts from lung cancer cells treated 1 μM for 2 h, untreated 0.114): 0.073
- Relative DNA Methyltransferase Activity ([4]; experiment 2 (repeat): nuclear extracts from lung cancer cells treated 1 μM for 2 h, untreated 0.122): 0.075
